Laboratory results reported in a melting point compilation (Tetko et al.; mined from patent text by program, amines drawn as free bases though some values may be those of a salt).

Row | melting point [°C] | Structure (SMILES)
1 | 212 to 215 | O=C(Nc1ccc(C(=O)N2Cc3ccccc3Cc3ccccc32)cc1)c1ccc(Cl)cc1Cl
2 | 154 to 155 | O=C(c1ccc(F)cc1C(F)(F)F)N1Cc2cccn2Cc2ccccc21
3 | 154 to 155 | CC(C)(C)OC(=O)NC1CC2CCCC(C1)N2Cc1ccccc1 (stereo not given)
4 | 120 to 121 | Cc1cc(SCc2ccc(OCc3ccccc3)cc2)ccc1OCC(=O)O
5 | 175 to 176 | O=c1ccc(-c2ccc(Cl)cc2)n[nH]1
6 | 229 to 231 | CC12CCC(C(=O)Nc3ccccc3C(c3ccc(O)cc3)c3ccc(O)cc3)(OC1=O)C2(C)C (stereo not given)
7 | 187 to 188 | CCOC(=O)C1=C(C)N(C(C)=O)C(c2csc(C)n2)=NC1c1ccc(C)cc1 (stereo not given)
8 | 115 to 117 | O=C1c2ccccc2C(=O)N1CCc1cc(Br)cs1
9 | 190 to 192 | O=C1C(=O)c2ccccc2C2=C1SCC1(CCN(Cc3ccc(-c4cn[nH]c4)cc3)CC1)O2
10 | 227 | CCc1cc(-c2ccc(Cl)cc2)nc2c(C(=O)O)cnn12
11 | 120 to 130 | CC(C)C[C@H](NS(=O)(=O)c1ccc2c(c1)Sc1ccccc1O2)C(=O)O
12 | 188 | CNC(=S)NS(=O)(=O)c1cc(CCNC(=O)/C=C/c2ccccn2)ccc1OC
13 | 97 to 98 | COc1ccccc1CCN1CC(=O)N(c2cnn(Cc3c(C)noc3C)c2)C1=O
14 | 105 to 109 | CCOc1ccc(C(F)(F)F)cc1-c1cccn2nc(Nc3ccc4c(c3)CCN(CCS(C)(=O)=O)CC4)nc12
15 | 263 to 268 | CC(=NNc1ccc(-c2ccc(=O)n(C)n2)cc1)c1ccc(O)cc1O
16 | 95 to 96 | CCOC(=O)C(=O)c1ccc(OCCCCC(=O)c2cc(C(C)(C)C)c(O)c(C(C)(C)C)c2)cc1
17 | 130 to 132 | O=C(OCc1ccccc1)N1C[C@@H](O)[C@H](Oc2cccc(Cl)c2Cl)C1 (relative stereo)
18 | 219 to 221 | CNc1cc(N2CCN(C(=O)N3CCN(S(=O)(=O)c4ccc(Br)cc4)CC3)CC2)ncn1
19 | 160 | CN1CCCC(c2cccc3c2CC(=O)N3)C1 (stereo not given)
20 | 97 to 98 | Cc1cc(SC(C)C)c(NC(=O)CCCCCCCCSc2nc3cccc(C(F)(F)F)c3o2)c(SC(C)C)n1
21 | 139 to 140 | COC(=O)N1CCC(c2ccccc2)C(O)C1 (stereo not given)
22 | 96 to 98 | CN(C)C1CCN(Cc2ccc3c(c2)Cc2c(-c4cccs4)n[nH]c2-3)CC1
23 | 218 | Cc1ccc(C(=O)c2ccc(O)c(CC(=O)O)c2)cc1
24 | 197 to 199 | CCOC(=O)Cc1n[nH]c(=O)c2c(C)cccc12
25 | 163 to 164 | O=C(Nc1cc2ncc(CN3CCCC3)cc2cc1F)c1ccc(-c2ccccc2)cc1F
26 | 143 to 144 | CC(=O)c1cc2c(s1)Oc1ccccc1N=C2N1CCN(C)CC1
27 | 215 to 218 | N#Cc1ccc(-c2cc(C(=O)N[C@H]3CC[C@H](C(=O)O)CC3)c(=O)n(Cc3ccccc3)n2)cc1

Row | melting point [°C] | Structure (SMILES)
28 | 62 to 63 | CC(C)OC(=O)Cc1nc(-c2ccccc2)oc1-c1ccsc1
29 | 303 to 305 | COc1cc(OC)c2c(=O)[nH]c(-c3ccc(O)cc3)nc2c1
30 | 248 | O=C(O)c1nc2c(=O)[nH]c3cc(C(F)(F)F)ccc3n2c1CNCc1ccccc1
31 | 35 to 38 | Cc1c(C(=O)N(C)Cc2ccc3c(Br)c(OCC#N)ccc3c2)oc2ccccc12
32 | > 324 | COc1cc2cc3c4c(cccc4c2cc1OC)C(=O)OC3=O
33 | 151 to 152 | CC(C)(C)OC(=O)N1CCN2C(=O)OC(c3ccccc3)(c3ccccc3)C2C1 (stereo not given)
34 | 106 to 116 | NC1=NC(c2cccc(-c3cccnc3F)c2)(c2cnn(CC(F)(F)F)c2)C2=NCCCN12 (stereo not given)
35 | 143 to 144 | CC(C)CCSc1cc(C(=O)O)cc([N+](=O)[O-])c1-c1ccccc1
36 | 183 to 185 | CCOC(=O)C1=CC(C2CC2)c2c(ccc(-c3cc4c(s3)C(O)CCC4)c2OC)C1=O (stereo not given)
37 | 147 to 149 | CCc1c(-c2ccc(O)cc2)c2ccc3c(N)ccc1n32
38 | 205 | CCCC1=NN(c2ccc(S(=O)(=O)O)cc2)C(=O)C1=CNc1ccccc1CC
39 | 60 | COCCOCOc1ccc2cc(C(=O)N(C)Cc3cccc(-c4ccc(Nc5cccc(C(=O)O)c5)cc4)c3)ccc2c1
40 | 190 to 192 | CSC1C(=O)Nc2c(Nc3ccc(Cl)cc3)cccc21 (stereo not given)
41 | 115 to 116 | CCOc1nn(-c2ccc(C(F)(F)F)cn2)cc1CCCOc1ccc(CCC(=O)O)cc1OCc1ccccc1
42 | 246 | O=C1CCC2=C1C(c1cccc(Br)c1)C1=C(CCS1)N2 (stereo not given)
43 | 209 to 211 | O=C(Cc1ccc(OCc2ccccc2C(=O)O)cc1)NC1(C(=O)O)Cc2ccc(-c3ccc(Cl)cc3)cc2C1 (stereo not given)
44 | 149 to 151 | CCOCc1nc2c(N)nc3ccccc3c2s1
45 | 195 to 197 | COc1cn(-c2ccc(-c3cnn(C)c3)cc2F)nc(-c2ccnn2-c2ccccc2)c1=O
46 | 166 to 167 | O=C(Nc1cccc2c1C(=O)c1c-2n[nH]c1-c1ccc(C(=O)N2CCC[C@@H]2CN2CCCC2)s1)NN1CCOCC1
47 | > 270 | COC(=O)c1cc(-c2ccncc2)[nH]c1-c1ccncc1
48 | 211 to 212 | CN(c1cccc(C(F)(F)F)c1)c1nc2c(-c3cccc(C(=O)O)c3)cccc2n1C
49 | 159 to 161 | COc1cccc(Sc2ccnc(Nc3ccc(N4CCOCC4)cc3)n2)c1
50 | 143 to 145 | Cc1nc(C)c(Cl)c(NCc2nccc(SCCCCN3CCNCC3)c2C)n1
51 | 160 to 164 | COc1cccc(-n2c(CC(c3ccccc3)c3c[nH]c4ccccc34)nc3ccccc3c2=O)c1 (stereo not given)
52 | 217 to 220 | CCc1nnc2c(NC3CCCCC3)nc3ccccc3n12
53 | 171 to 173 | CCCCc1ccc(CNc2cc(C(=O)Nc3ccccc3)ccc2OC)cc1

More lines, now with the values behind:

Row | Structure (SMILES) | melting point [°C]
54 | CC1Cc2ccc(Cl)cc2C(c2ccc([N+](=O)[O-])cc2)=NN1 (stereo not given) | 132 to 135
55 | C(=C\c1nc(COc2ccc(CCCn3cnnn3)cc2)co1)/c1ccccc1 | 147 to 148
56 | CCOC(=O)C1=C(COCCn2c(C)nc(C)c2C)NC2=C(C(=O)OC2)C1c1ccccc1Cl (stereo not given) | 215 to 217
57 | CCC(CC)c1ccc(C(F)(F)F)c2[nH]c(=O)n(C)c12 | 205 to 206
58 | O=C(NC(Cc1ccccc1)C(=O)O)OCc1cc2cc(-c3cncnc3)ccc2o1 (stereo not given) | 192
59 | CCN(Cc1ccccc1)C(=O)Cc1c(-c2ccc(Cl)cc2)nc2cc(C)ccn12 | 192 to 193
60 | CCOC(=O)N[C@H]1CC=C[C@H]2CNC(=O)[C@H]12 (racemic) | 160 to 164
61 | CN1C(=O)C(NC(=O)Nc2ccc(Br)cc2)N=C(c2ccccc2)c2ccccc21 (stereo not given) | 286 to 287
62 | CCCCc1nc(-c2ccco2)n[nH]1 | 73 to 74
63 | CC(C)Nc1ccc([N+](=O)[O-])cc1C(=O)c1ccccc1 | 155
64 | CCn1nc(C)c2c(O)c(C(=O)O)cnc21 | 212 to 213
65 | CC(C)(C)OC(=O)NC12CC3CC(C1)CC(OS(C)(=O)=O)(C3)C2 | 100 to 102
66 | CCN(CC)CCCOc1ccc(NC(=O)c2ccccc2)cc1NC(=O)c1ccccc1 | 139 to 140
67 | Nc1ccc(C(c2cccc(N)c2)(C(F)(F)F)C(F)(F)F)cc1 | 142 to 143
68 | O=C(O)CCCc1cc2nc(Cl)ccc2n1S(=O)(=O)c1ccc2nccnc2c1 | 103 to 106
69 | CCCc1nc(C=NNC(=S)SC)c[nH]1 | 95 to 104
70 | CCCCCCCCCCCCc1ccccc1CC(O)(SCCC(=O)O)C(N)=O (stereo not given) | 97.5 to 102
71 | O=CCC[C@@H]1[C@@H](OCc2ccc(-c3ccccc3)cc2)CO[C@@H]1c1cccnc1 | 204 to 205
72 | CC(=O)Nc1c(OC(C)=O)cc(C(C)(C)C)cc1[N+](=O)[O-] | 200 to 201
73 | COc1cc(S(C)=O)c(C)cc1OCC(C)=O (stereo not given) | 104 to 106
74 | Cc1ccc(S(=O)(=O)NC(CSCC(=O)O)C(=O)O)cc1 (stereo not given) | 152

Row | Structure (SMILES) | melting point [°C]
75 | NS(=O)(=O)c1cc2cc(P(=O)(O)O)c(=O)[nH]c2cc1C(F)(F)F | 240 to 244
76 | CCOC(=O)c1cc2cc(C=CC(=O)c3ccc(C)cc3)cc(C(C)CC)c2oc1=O (stereo not given) | 155 to 156
77 | O=[N+]([O-])c1cccc(OCCCl)c1 | 54.5 to 57
78 | CCOC(=O)c1cnc(Nc2ccccc2O)[nH]c1=O | 289 to 291
79 | CCSCC(=O)Nc1c(C)cccc1C | 96 to 98
80 | Cc1nc(OC(C)C(=O)NC(C)(C#N)C(C)(C)C)c(Cl)c(C(F)(F)F)n1 (stereo not given) | 137 to 139
81 | CCc1nc2ccccc2c(=O)o1 | 83.9
82 | Cc1ccc2c(c1)C(N(CCCCC(=O)O)S(C)(=O)=O)CC(C)(C)O2 (stereo not given) | 190 to 195
83 | CCCc1c(OCCCCCc2c(Cl)c(Cl)c(Cl)c(OC)c2OC)ccc(C(=O)O)c1O | 148 to 150
84 | Cc1c(C)c(N2C(=O)c3cc(Cl)c(Cl)cc3C2=O)c(C)c2c1OC(C)(C)C2c1ccc(F)cc1 (stereo not given) | 232 to 233
85 | O=C1c2ccccc2N2CCCN3CCN1C32 (stereo not given) | 144 to 146
86 | c1ccc(-c2ccnc3ccnn23)cc1 | 72 to 73
87 | N#Cc1nn(-c2c(Cl)cc(C(F)(F)F)cc2Cl)c(N2CCCCC2)c1S(=O)(=O)C(F)(F)F | 153 to 155
88 | CCCN(Cc1ccc(-c2ccccc2-c2nnnn2C(c2ccccc2)(c2ccccc2)c2ccccc2)cc1)c1nc(C)cnc1C(=O)OCC | 110 to 112
89 | CC(CO)NC1=NS(=O)(=O)c2cnccc2N1 (stereo not given) | 213 to 216
90 | Cc1c(SCCCCSCCn2c([N+](=O)[O-])cnc2C)ccnc1CO | 86 to 87
91 | CCC(CC)C(NS(=O)(=O)c1ccc(C#N)cc1)c1ccnn1-c1ccccc1 (stereo not given) | 135 to 137
92 | Cc1cc(-c2nc3ccccc3c(=O)n2-c2ccc(Br)cc2)cc(C)c1OCCO | 164 to 165
93 | CCC(CCNC(=O)CC#N)NC(=O)CC#N (stereo not given) | 125
94 | CC(C)(C)C(=O)CC(C(=O)C(C)(C)C)n1cncn1 (stereo not given) | 66 to 69
95 | COc1ccc(-c2ccc(Cl)cc2)cc1COCCc1cccc(NS(=O)(=O)C(F)(F)F)c1 | 99 to 101
